The source of these data is patent US9771369B2, “Compounds and methods for kinase modulation, and indications therefor” (Plexxikon Inc., priority 2014, dated 2017).

Experiment [1] concerns BaF3-FL KIT D816V or BaF3-FL KIT V560G/D816V cell line. Kind of experiment: Cell-based assays of c-Kit mutant kinase activity (cell proliferation, ATPlite). The note with it: at least one of the c-kit cell assays of Example 7. How it is done:
The c-Kit mutant D816V inhibitors were assessed using an engineered BaF3-FL KIT D816V or BaF3-FL KIT V560G/D816V cell line. The BaF3-FL KIT D816V cell lines were created by introduction of KIT mutant (D816V) full length constructs that render the cells dependent on the introduced kinase for growth. Inhibitors of c-Kit mutant D816V kinase reduce or eliminate the mediated c-kit mutant D816V kinase activation, resulting in reduced cell proliferation of the BaF3-FL Kit mutant D816V cells. This inhibition is measured by the effect of compound concentration on cell growth to assess IC50 values. BaF3-FL KIT D816V cells were seeded at 1×10^4 cells per well of a 96 well cell culture plate in 50 μl of cell culture medium of RPMI Medium 1× (Invitrogen #11875-093) supplemented with 10% FBS (Invitrogen #10438), 1% Non Essential Amino Acids (Invitrogen #11140), 1% Penicillin Streptomycin (Invitrogen #15140), 1% L-Glutamine (Invitrogen #25030-081). Compounds were dissolved in DMSO at a concentration of 5 mM and were serially diluted 1:3 for a total of eight points and added to the cells to a final maximum concentration of 10 μM in 100 μl cell culture medium (final concentration 0.2% DMSO). Cells were also treated with Dasatinib as a positive control. The cells were incubated at 37° C., 5% CO2 for three days. ATPlite Buffer (Perkin Elmer #6016739) and substrate were equilibrated to room temperature, and enzyme/substrate Recombinant Firefly Luciferase/D-Luciferin was reconstituted. The cell plates were equilibrated to room temperature for 30 minutes, then lysed by addition of 25 μL per well of the ATPlite Reagent. The plate was mixed for 5 minutes on a plate shaker to lyse the cells. The plates were read on a Tecan Safire using Luminescence protocol modified to read 0.1s per well. The luminescence reading assesses the ATP content, which correlates directly with cell number such that the reading as a function of compound concentration is used to determine the IC50 value.
Plasmids P75635 and P75565 were engineered for mammalian cell expression. In both plasmids, full-length human v-kit Hardy-Zuckerman 4 feline sarcoma viral oncogene homolog gene (NCBI accession NM_000222, KIT, residues M1-V976) was subcloned into the pCI-Neo vector (Promega E1841). Plasmid P75635 contains the mutation of residue Aspartic acid 816 to Valine. Plasmid P75565 contains the double mutation of residues Valine 560 to Glycine and Aspartic acid 816 to Valine. The pCI-neo Mammalian Expression Vector carries the human cytomegalovirus (CMV) immediate-early enhancer/promoter region to promote constitutive expression of KIT and contains the neomycin phosphotransferase gene, a selectable marker.
It is understood that the results of these assays may vary as assay conditions are varied. Inhibition levels determined under the conditions described herein represent a relative activity for the compounds tested under the specific conditions employed. The cell based assays are likely to show variability due to the complexity of the system and the sensitivity thereof to any changes in the assay conditions. […] In some instances, the compounds were not tested in all of the assays, or assay results were not valid.

The next experiment has as its target c-Kit kinase (Homo sapiens (Human), UniProt P10721). Kind of experiment: c-Kit biochemical assay (AlphaScreen kinase activity). As for the experimental part: Assays for biochemical cell-based activity of c-kit kinase are known in the art, for example, as described in U.S. Pat. Nos. 7,498,342 and 7,846,941, the disclosures of which are hereby incorporated by reference as it relates to such assays. The c-kit (or kinase domain thereof) is an active kinase in AlphaScreen. IC50 values are determined with respect to inhibition of c-Kit kinase activity, where inhibition of phosphorylation of a peptide substrate is measured as a function of compound concentration. Compounds to be tested were dissolved in DMSO to a concentration of 30 mM. These were diluted 30 μl into 130 μl of DMSO (4 mM) and 1 μl was added to an assay plate. These were then serially diluted 1:3 (50 μl to 100 μl DMSO) for a total of 8 points. Plates were prepared such that each kinase reaction is 30 μl in 1× kinase buffer (50 mM HEPES, pH 7.2, 5 mM MgCl2, 5 mM MnCl2, 0.01% NP-40, 0.2% BSA), 5% DMSO and 10 μM ATP. Substrate was 100 nM biotin-(E4Y)3 (Open Source Biotech, Inc.). C-kit kinase was at 0.1 ng per sample. After incubation of the kinase reaction for 1 hour at room temperature, 5 μl of donor beads (Streptavidin coated beads (Perkin Elmer Life Science) final concentration 1 μg/ml) in stop buffer (50 mM EDTA in 1× kinase buffer) was added, the sample was mixed and incubated for 30 minutes at room temperature before adding […] of acceptor beads (PY30 coated beads (Perkin Elmer Life Science) final concentration 1 μg/ml) in stop buffer. The samples were incubated for 60 minutes at room temperature and the signal per well was read on AlphaQuest reader. Phosphorylated substrate results in binding of the PY30 antibody and association of the donor and acceptor beads such that signal correlates with kinase activity. The signal vs. compound concentration was used to determine the IC50.
Compounds were also tested using a similar assay with a 10-fold higher ATP concentration. For these samples, compounds to be tested were dissolved in DMSO to a concentration of 30 mM. These were diluted 30 μl into 130 μl of DMSO (4 mM) and 1 μl was added to an assay plate. These were then serially diluted 1:3 (50 μl to 100 μl DMSO) for a total of 8 points. Plates were prepared such that each kinase reaction is 30 μl in 1× kinase buffer (25 mM HEPES, pH 7.5, 2 mM MgCl2, 2 mM MnCl2, 0.01% […], 1 mM DTT, and 0.001% BSA), 5% DMSO and 100 μM ATP. Substrate was 30 nM biotin-(E4Y)10 (Upstate Biotech, Cat#12-440). C-kit kinase was at 1 ng per sample. After incubation of the kinase reaction for 1 hour at room temperature, 5 μl of donor beads (Streptavidin coated beads (Perkin Elmer Life Science) final concentration 10 μg/ml) in stop buffer (25 mM HEPES pH 7.5, 100 mM EDTA, 0.3% BSA) was added, the sample was mixed and incubated for 30 minutes at room temperature before adding 5 μl of acceptor beads (PY30 coated beads (Perkin Elmer Life Science) final concentration 10 μg/ml) in stop buffer. The samples were incubated for 60 minutes at room temperature and the signal per well was read on AlphaQuest or Envision reader (Perkin Elmer Life Science). Phosphorylated substrate results in binding of the PY30 antibody and association of the donor and acceptor beads such that signal correlates with kinase activity. The signal vs. compound concentration was used to determine the IC50.
The c-kit enzyme used in the above assay was either obtained from Cell Signaling Technology (Cat. #7754) or was prepared as follows: A plasmid encoding kit (DNA and encoded protein sequences shown below) was engineered using common polymerase chain reaction (PCR) methods. Complementary DNA cloned from various human tissues were purchased from Invitrogen, and these were used as substrates in the PCR reactions. Specific custom synthetic oligonucleotide primers were designed to initiate the PCR product, and also to provide the appropriate restriction enzyme cleavage sites for ligation with the plasmids. […]
(Alpha assays give light when donor and acceptor beads are brought close together.)

A value given as a limit tells only on which side of the number the result lay.

Sequence of c-Kit kinase (P10721 26-976): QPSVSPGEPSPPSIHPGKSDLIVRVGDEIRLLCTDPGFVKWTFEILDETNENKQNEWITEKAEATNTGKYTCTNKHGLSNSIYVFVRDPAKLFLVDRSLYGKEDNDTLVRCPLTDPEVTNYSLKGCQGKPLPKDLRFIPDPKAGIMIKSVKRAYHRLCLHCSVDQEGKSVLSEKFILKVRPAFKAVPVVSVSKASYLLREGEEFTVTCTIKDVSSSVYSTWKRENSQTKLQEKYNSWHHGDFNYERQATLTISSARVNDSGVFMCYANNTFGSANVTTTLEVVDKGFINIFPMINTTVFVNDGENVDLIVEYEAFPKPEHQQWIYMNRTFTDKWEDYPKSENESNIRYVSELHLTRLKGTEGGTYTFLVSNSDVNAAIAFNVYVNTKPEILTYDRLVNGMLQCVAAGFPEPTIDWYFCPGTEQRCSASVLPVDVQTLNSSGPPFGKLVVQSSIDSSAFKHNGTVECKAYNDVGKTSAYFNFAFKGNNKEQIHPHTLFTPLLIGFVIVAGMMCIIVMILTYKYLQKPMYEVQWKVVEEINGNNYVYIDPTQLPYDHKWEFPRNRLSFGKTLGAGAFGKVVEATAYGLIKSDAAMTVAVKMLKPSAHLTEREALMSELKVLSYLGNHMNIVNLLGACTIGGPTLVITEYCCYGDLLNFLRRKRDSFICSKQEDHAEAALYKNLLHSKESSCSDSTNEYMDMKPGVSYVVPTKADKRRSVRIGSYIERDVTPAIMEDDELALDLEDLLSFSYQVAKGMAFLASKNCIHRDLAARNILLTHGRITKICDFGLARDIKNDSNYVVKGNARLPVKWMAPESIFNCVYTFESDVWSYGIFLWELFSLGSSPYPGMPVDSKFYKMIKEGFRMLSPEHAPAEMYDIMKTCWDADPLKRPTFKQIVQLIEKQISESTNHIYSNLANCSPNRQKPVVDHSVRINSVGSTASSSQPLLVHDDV

By IC50 is commonly meant the concentration that inhibits the measured activity by half. Low values mean inhibition by little substance, high ones a need for much substance. In the case of `COc1cc(-c2[nH]c(C3CCN(c4ncnc5[nH]c(-c6ccc(C#N)cc6)cc45)CC3)nc2C)ccc1C` [P-3106, 4-[4-[4-[5-(3-methoxy-4-methyl-phenyl)-4-methyl-1H-imidazol-2-yl]-1-piperidyl]-7H-pyrrolo[2,3-d]pyrimidin-6-yl]benzonitrile], the half-inhibitory concentration (IC50) in experiment [1] was less than 10 µM; on c-Kit kinase, 1 to 10 µM.

Take `Cc1nc(C2CCN(c3ncnc4[nH]c(-c5cnn(C(F)F)c5)cc34)CC2)[nH]c1-c1ccc(F)cc1` [P-3107, 6-[1-(difluoromethyl)pyrazol-4-yl]-4-[4-[5-(4-fluorophenyl)-4-methyl-1H-imidazol-2-yl]-1-piperidyl]-7H-pyrrolo[2,3-d]pyrimidine]: the half-inhibitory concentration (IC50) was less than 10 µM in experiment [1] and 0.0001 to 1 µM against c-Kit kinase.

For the compound `COc1ccc(-c2[nH]c(C3CCN(c4ncnc5[nH]c(-c6cnn(C(F)F)c6)cc45)CC3)nc2C)cc1` [P-3108, 6-[1-(difluoromethyl)pyrazol-4-yl]-4-[4-[5-(4-methoxyphenyl)-4-methyl-1H-imidazol-2-yl]-1-piperidyl]-7H-pyrrolo[2,3-d]pyrimidine], the IC50 was less than 10 µM in experiment [1] and 0.0001 to 1 µM on c-Kit kinase.

On to `Cc1nc(C2CCN(c3ncnc4[nH]c(-c5ccc(F)cc5)cc34)CC2)[nH]c1-c1ccc2c(c1)OC(F)(F)O2` [P-3109, 4-[4-[5-(2,2-difluoro-1,3-benzodioxol-5-yl)-4-methyl-1H-imidazol-2-yl]-1-piperidyl]-6-(4-fluorophenyl)-7H-pyrrolo[2,3-d]pyrimidine], for which the IC50 was less than 10 µM in experiment [1] and 1 to 10 µM at c-Kit kinase.

`Cc1nc(C2CCN(c3ncnc4[nH]c(-c5ccc(C#N)cc5)cc34)CC2)[nH]c1-c1ccc2c(c1)OC(F)(F)O2` [P-3110, 4-[4-[4-[5-(2,2-difluoro-1,3-benzodioxol-5-yl)-4-methyl-1H-imidazol-2-yl]-1-piperidyl]-7H-pyrrolo[2,3-d]pyrimidin-6-yl]benzonitrile]: the 50% inhibitory concentration (IC50) in experiment [1] was less than 10 µM; at c-Kit kinase it was 10 to 300 µM.

Take `COc1cc(-c2cc3c(N4CCC(c5nc(C)c(-c6ccc7c(c6)OC(F)(F)O7)[nH]5)CC4)ncnc3[nH]2)ccn1` [P-3111, 4-[4-[5-(2,2-difluoro-1,3-benzodioxol-5-yl)-4-methyl-1H-imidazol-2-yl]-1-piperidyl]-6-(2-methoxy-4-pyridyl)-7H-pyrrolo[2,3-d]pyrimidine]: the IC50 is less than 10 µM in experiment [1] and 10 to 300 µM at c-Kit kinase.

Regarding `COc1ccc(-c2[nH]c(C3CCN(c4ncnc5[nH]c(-c6ccc(C#N)cc6)cc45)CC3)nc2C)cn1` [P-3112, 4-[4-[4-[5-(6-methoxy-3-pyridyl)-4-methyl-1H-imidazol-2-yl]-1-piperidyl]-7H-pyrrolo[2,3-d]pyrimidin-6-yl]benzonitrile], the half-maximal inhibitory concentration (IC50) in experiment [1] is less than 10 µM; on c-Kit kinase, 0.0001 to 1 µM.

With `Cc1nc(C2CCN(c3ncnc4[nH]c(-c5ccc(C#N)cc5)cc34)CC2)[nH]c1-c1ccc(OC(F)F)cc1` [P-3113, 4-[4-[4-[5-[4-(difluoromethoxy)phenyl]-4-methyl-1H-imidazol-2-yl]-1-piperidyl]-7H-pyrrolo[2,3-d]pyrimidin-6-yl]benzonitrile], the IC50 in experiment [1] was less than 10 µM; on c-Kit kinase it was 1 to 10 µM.

Take `COc1cccc(-c2[nH]c(C3CCN(c4ncnc5[nH]c(-c6cnn(C(F)F)c6)cc45)CC3)nc2C)c1` [P-3114, 6-[1-(difluoromethyl)pyrazol-4-yl]-4-[4-[5-(3-methoxyphenyl)-4-methyl-1H-imidazol-2-yl]-1-piperidyl]-7H-pyrrolo[2,3-d]pyrimidine]: the IC50 is less than 10 µM in experiment [1] and 0.0001 to 1 µM against c-Kit kinase.

Turning to `Cc1nc(C2CCN(c3ncnc4[nH]c(-c5cnn(C(F)F)c5)cc34)CC2)[nH]c1-c1ccc(OC(F)F)cc1` [P-3115, 4-[4-[5-[4-(difluoromethoxy)phenyl]-4-methyl-1H-imidazol-2-yl]-1-piperidyl]-6-[1-(difluoromethyl)pyrazol-4-yl]-7H-pyrrolo[2,3-d]pyrimidine], the IC50 in experiment [1] was less than 10 µM; at c-Kit kinase it was 0.0001 to 1 µM.

On to `Cc1nc(C2CCN(c3ncnc4[nH]c(-c5cnn(C(F)F)c5)cc34)CC2)[nH]c1-c1ccc(OC(F)(F)F)cc1` [P-3116, 6-[1-(difluoromethyl)pyrazol-4-yl]-4-[4-[4-methyl-5-[4-(trifluoromethoxy)phenyl]-1H-imidazol-2-yl]-1-piperidyl]-7H-pyrrolo[2,3-d]pyrimidine], for which the half-maximal inhibitory concentration (IC50) was less than 10 µM in experiment [1] and 0.0001 to 1 µM against c-Kit kinase.

For `COc1cc(-c2cc3c(N4CCC(c5nc(C)c(-c6ccc(C)s6)[nH]5)CC4)ncnc3[nH]2)ccn1` [P-3117, 6-(2-methoxy-4-pyridyl)-4-[4-[4-methyl-5-(5-methyl-2-thienyl)-1H-imidazol-2-yl]-1-piperidyl]-7H-pyrrolo[2,3-d]pyrimidine], the values for the half-inhibitory concentration (IC50) (in experiment [1]; against c-Kit kinase) were less than 10 µM and 0.0001 to 1 µM, respectively.

Turning to `Cc1ccc(-c2[nH]c(C3CCN(c4ncnc5[nH]c(-c6ccc(F)cc6)cc45)CC3)nc2C)s1` [P-3118, 6-(4-fluorophenyl)-4-[4-[4-methyl-5-(5-methyl-2-thienyl)-1H-imidazol-2-yl]-1-piperidyl]-7H-pyrrolo[2,3-d]pyrimidine], the IC50 in experiment [1] is less than 10 µM; against c-Kit kinase, 0.0001 to 1 µM.
